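Compound exposure: 48 hours, 5 concentrations, 96-well plates. TGI is the concentration that stops growth completely.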
Columns and labels:
Test in all cases: NCI-60 cell line screen, 48 h
DU-145 prostate = test system: DU-145 prostate
SF-295 CNS = test system: SF-295 CNS
NCI-H226 lung = test system: NCI-H226 lung
MDA-MB-435 = test system: MDA-MB-435
786-0 renal = test system: 786-0 renal
OVCAR-8 ovarian = test system: OVCAR-8 ovarian
MALME-3M melanoma = test system: MALME-3M melanoma
NCI/ADR-RES ovarian = test system: NCI/ADR-RES ovarian
RXF 393 renal = test system: RXF 393 renal
SK-MEL-5 melanoma = test system: SK-MEL-5 melanoma
HL-60(TB) leukemia = test system: HL-60(TB) leukemia
SF-539 CNS = test system: SF-539 CNS

| Structure (SMILES) | TGI (DU-145 prostate) [µM] | TGI (SF-295 CNS) [µM] | TGI (NCI-H226 lung) [µM] | TGI (MDA-MB-435) [µM] | TGI (786-0 renal) [µM] | TGI (OVCAR-8 ovarian) [µM] | TGI (MALME-3M melanoma) [µM] | TGI (NCI/ADR-RES ovarian) [µM] | TGI (RXF 393 renal) [µM] | TGI (SK-MEL-5 melanoma) [µM] | TGI (HL-60(TB) leukemia) [µM] | TGI (SF-539 CNS) [µM] |
| --- | --- | --- | --- | --- | --- | --- | --- | --- | --- | --- | --- | --- |
| COc1cc(/C=C2\C(=O)N(c3ccccc3)C(c3ccccc3)S2(=O)=O)cc(OC)c1OC (stereo unspecified) | > 100 | > 100 | > 100 | > 100 | > 100 | > 100 | > 100 | > 100 | 92.2 | > 100 | > 100 | > 100 |
| CC(=O)OC(/C=C/c1ccccc1)=C(OC(C)C)/C1=C(\c2ccccc2)SCCCSC1=O | > 100 | > 100 | > 100 | > 100 | > 100 | > 100 | > 100 | > 100 | > 100 | > 100 | > 100 | > 100 |
| Cn1c2c(c3ccccc31)CC1c3c(c4ccccc4n3C)CC21 (stereo unspecified) | > 100 | > 100 | > 100 | > 100 | > 100 | > 100 | > 100 | > 100 | > 100 | > 100 | > 100 | > 100 |
| O=C(N/N=C\c1cccc2c([N+](=O)[O-])cccc12)Nc1ccccc1 | 66.1 | 32.5 | 31.2 | 25 | 35.1 | 36.8 | 38 | 32.3 | 26.3 | 33.5 | 72.6 | 27.3 |
| O=C1CSC(c2cccc(Oc3ccccc3)c2)N1c1ccc(Cl)cc1 (stereo unspecified) | > 100 | > 100 | > 100 | 87.7 | > 100 | > 100 | 56.7 | > 100 | 73.3 | 25.2 | > 100 | > 100 |
| CCOCc1nc2c(OC)cc(-c3nc4ccc(N5CCN(C)CC5)cc4[nH]3)c(OC)c2[nH]1 | > 100 | 36.8 | 81 | 45.8 | > 100 | > 100 | 33.5 | > 100 | 36.2 | 31.6 | 21.1 | 36.1 |
| Cc1ccc(N=Nc2c(O)ccc3cc(S(=O)(=O)O)cc(S(=O)(=O)O)c23)cc1 | > 100 | > 100 | > 100 | > 100 | > 100 | > 100 | > 100 | > 100 | > 100 | > 100 | > 100 | > 100 |
| COc1cc(Cn2c3c(c4cc(O)ccc42)Cc2ccccc2C3=O)cc(OC)c1 | > 100 | 93.9 | > 100 | > 100 | > 100 | > 100 | > 100 | 66.1 | > 100 | > 100 | > 100 | > 100 |
